We go through 1 compound from paper PMC6348443 (Journal of Medicinal Chemistry, 2018).

SMILES strings stand for the structures. “Also recorded” adds a separate entry of the source.

Experiment [1] has as its system mouse. Also noted: method as in PMID 25721395. To be noted: systemic ip administration; cited from earlier work.
For experiment [2], the target named is T1, KOR (Homo sapiens, UniProt P41145).
T1 construct: host or cells: CHO (CHO-hKOR)
Briefly: [35S]GTPγS binding assay, CHO-hKOR membranes. Type of experiment: biochemical. Background: Binding of GTPγS marks nucleotide exchange on a G protein.

The test system of experiment [3] is male CD1 mice. To be noted: sc; cited from earlier work.
Experiment [4] has as its system peripheral opioid receptors. Briefly: antagonism by naloxone methiodide in the acetic acid-induced writhing assay. Type of experiment: in vivo, mouse. To be noted: sc co-administration with naloxone methiodide 1 mg/kg; agonist 50 or 200 μg/kg sc; 30 min. The source says:
To determine whether targeted 6-amino acid and 6-dipeptide analogues inhibit writhing behavior in mice through peripheral opioid receptors activation, we used naloxone methiodide.[27]
Values are shown as mean of writhes ± SEM (n = 6–7 mice per group). ***P < 0.001 vs control group; ^#P < 0.05, ^##P < 0.01 and ^###P < 0.001 vs agonist treated group, ANOVA with Tukey’s post hoc test.
Writhing was induced in male CD1 mice by ip injection of a 0.6% acetic acid aqueous solution as described previously.[48],[62] Groups of mice were administered sc different doses of test compound or saline (control), and 5 min prior to testing (25 min after drug or saline), each animal received an ip injection of acetic acid solution. Each mouse was placed in individual transparent Plexiglas chambers, and the number of writhes was counted during a 10 min observation period. […] For the antagonism study, naloxone methiodide was sc co-administered with the respective opioid agonist, and writhing was assessed as described above.

Experiment [5] deals with T2, DOR (Homo sapiens, UniProt P41143).
T2 construct: host or cells: CHO (CHO-hDOR)
Briefly: competition radioligand binding, CHO cell membranes expressing human DOR, [3H]diprenorphine.

For experiment [6], the target named is T3, MOR (Homo sapiens, UniProt P35372).
T3 construct: host or cells: CHO (CHO-hMOR)
Briefly: competition radioligand binding, CHO cell membranes expressing human MOR, [3H]DAMGO. How it is done: Membranes from CHO cells expressing human opioid receptors were prepared in 50 mM Tris-HCl buffer (pH 7.7) according to a previously described procedure.[64] Cells expressing human opioid receptors grown at confluence were removed from the culture plates by scraping, homogenized in 50 mM Tris buffer (pH 7.7), using a Polytron homogenizer, then centrifuged once and washed by an additional centrifugation at 27 000g for 15 min, at 4 °C. The final pellet was resuspended in Tris buffer and stored at −80 °C until use. Protein content of brain and cell membrane preparation homogenates was determined by the method of Bradford using bovine serum albumin as the standard.[65]
Rat brain membranes were incubated with either [^3H]DAMGO (1 nM, 45 min, 35 °C) or [^3H][Ile^5,6]deltorphin II (0.5 nM, 45 min, 35 °C) for labeling MOR or DOR receptors, respectively. Guinea-pig brain membranes were incubated with [^3H]U69,593 (1 nM, 30 min, 30 °C) for labeling KOR. Binding assays with CHO cell membranes were conducted at 25 °C for 60 min using [^3H]DAMGO (1 nM) or [^3H]diprenorphine (0.2 nM) for labeling MOR or DOR, respectively. Nonspecific binding was determined using 10 μM naloxone (rodent brain) or 1–10 μM of the unlabeled counterpart of each radioligand (CHO cells). Reactions were terminated by rapid filtration through Whatman glass fiber GF/C filters. Filters were washed three times with 5 mL of ice-cold 50 mM Tris-HCl buffer (pH 7.4) using a Brandel M24R cell harvester (Gaithersburg, MD). Radioactivity retained on the filters was counted by liquid scintillation counting using a Beckman Coulter LS6500 (Beckman Coulter Inc., Fullerton, CA). All binding experiments were performed in duplicate and repeated at least three times.
aDetermined in competition radioligand binding assays using CHO cell membranes expressing
human MOR and DOR. Values represent the mean ± SEM of three independent experiments each

In experiment [7] the test system is male CD1 mice. The experiment can be described thus: acetic acid-induced writhing assay after sc administration. To be noted: Mus musculus, 0.5 h, read-out: ED50 (95% CI), mice, sc, inhibition of writhing 30 min after drug administration. It counts as in vivo, mouse. On the technique in general: Writhing tests count abdominal constrictions after an irritant is injected.

The test system of experiment [8] is rats. Set-up: method as in PMID 16339394. Particulars: given orally; cited from earlier work.
For experiment [9], the target named is T3, MOR. The experiment can be described thus: [35S]GTPγS binding assay, CHO-hMOR membranes. Type of experiment: biochemical.
Experiment [10] concerns MOR. To be noted: systemic sc 2b, icv CTAP; cited from earlier work.

T3 sequence (P35372 whole entry): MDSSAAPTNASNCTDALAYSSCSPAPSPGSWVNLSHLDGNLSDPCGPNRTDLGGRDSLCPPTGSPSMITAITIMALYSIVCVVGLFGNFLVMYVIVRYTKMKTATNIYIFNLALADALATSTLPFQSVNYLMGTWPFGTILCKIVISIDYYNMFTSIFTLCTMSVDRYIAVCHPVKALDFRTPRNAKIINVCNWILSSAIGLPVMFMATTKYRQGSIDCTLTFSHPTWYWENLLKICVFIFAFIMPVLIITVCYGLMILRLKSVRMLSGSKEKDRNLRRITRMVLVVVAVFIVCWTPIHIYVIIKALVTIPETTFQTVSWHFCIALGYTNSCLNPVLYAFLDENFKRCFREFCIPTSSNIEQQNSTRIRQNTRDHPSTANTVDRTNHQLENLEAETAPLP
T1 sequence (P41145 whole entry): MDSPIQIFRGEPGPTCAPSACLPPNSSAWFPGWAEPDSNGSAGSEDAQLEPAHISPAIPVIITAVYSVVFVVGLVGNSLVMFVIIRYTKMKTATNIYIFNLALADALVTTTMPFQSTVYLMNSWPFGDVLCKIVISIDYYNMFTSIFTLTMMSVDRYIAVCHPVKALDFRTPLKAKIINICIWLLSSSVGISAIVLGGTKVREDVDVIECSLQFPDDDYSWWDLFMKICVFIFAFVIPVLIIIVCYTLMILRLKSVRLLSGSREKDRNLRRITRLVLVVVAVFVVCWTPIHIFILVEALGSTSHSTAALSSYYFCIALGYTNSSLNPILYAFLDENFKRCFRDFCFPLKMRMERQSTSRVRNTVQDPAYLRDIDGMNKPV
T2 sequence (P41143 whole entry): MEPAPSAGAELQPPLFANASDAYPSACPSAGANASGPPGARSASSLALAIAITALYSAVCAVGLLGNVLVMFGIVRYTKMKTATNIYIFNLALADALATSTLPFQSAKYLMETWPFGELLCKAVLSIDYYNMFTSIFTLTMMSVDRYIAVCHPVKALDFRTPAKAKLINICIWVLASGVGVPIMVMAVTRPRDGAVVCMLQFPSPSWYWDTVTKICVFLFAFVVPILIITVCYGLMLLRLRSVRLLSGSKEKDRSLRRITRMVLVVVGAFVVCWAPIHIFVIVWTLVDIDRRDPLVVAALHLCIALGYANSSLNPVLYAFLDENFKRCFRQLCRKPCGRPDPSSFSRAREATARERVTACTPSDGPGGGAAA

Regarding `CO[C@@]12CC[C@@H](NCC(=O)O)[C@@H]3Oc4c(O)ccc5c4[C@@]31CCN(C)[C@@H]2C5` [Compound 2b, 2-[(4,5α-Epoxy-3-Hydroxy-14β-Methoxy-17-Methylmorphinan-6β-yl)Amino]Acetic Acid], in [1], the “effect of naloxone methiodide on antinociceptive effects” value is “completely antagonized”. Moreover, the EC50 (commonly the midpoint of the concentration-response curve) is 361 ± 154 nM in [2] and 3.78 ± 0.73 nM in experiment [9]. Besides, the Emax in experiment [2] (relative to reference full agonist U69,593, read-out: KOR % stim.) was 82 ± 9%; in experiment [9] (relative to reference full agonist DAMGO, read-out: MOR % stim.) it was 98 ± 9%. In experiment [3], the “more potent than morphine in inhibiting the writhing response” value is 24 times. Moreover, the “effect of naloxone methiodide on antinociceptive effect” value in experiment [4] was “reversed; also recorded: antagonized”. Moreover, the Ki (in general, a measure of affinity in units of concentration, obtained from inhibition or displacement) amounted to 10.1 ± 2.7 nM in experiment [5] and 0.9 ± 0.14 nM in experiment [6]. Besides, the ED50 in [7] worked out at 0.0275 mg/kg. Also, the “effect of sc naloxone methiodide on antihyperalgesic effects” value in experiment [8] was “reversed”. Also, the “effect of intracerebroventricular CTAP on antinociceptive effects” value in experiment [10] is reported as “did not reverse”.
